# Data published in patent US10377773B2, “Isothiazolopyrimidinones, pyrazolopyrimidinones, and pyrrolopyrimidinones as ubiquitin-specific protease 7 inhibitors” (FORMA Therapeutics, Inc., priority 2015, dated 2019).
# pIC50: −log10 of the molar value.
# Target: T1, USP7 (Homo sapiens, UniProt Q93009)
# T1 construct: USP7, construct USP7 (208-1102) 6*His, Viva Biotech; initiator Met (N); TEV site (C); 6*His (C); purchased Viva Biotech
# Test: USP7 Assay A and B (Ubiquitin-Rhodamine 110 assay)
# Assay type: biochemical
# Conditions: Ub-Rh110 substrate 25 nM, read-out: USP7_IC50
# Experimental: Each assay was performed in a final volume of 15 μL in assay buffer containing 20 mM Tris-HCl (pH 8.0, (1M Tris-HCl, pH 8.0 solution; Corning 46-031-CM)), 1 mM GSH (L-Glutathione reduced; Sigma #G4251), 0.03% BGG (0.22 μM filtered, Sigma, #G7516-25G), and 0.01% Triton X-100 (Sigma, #T9284-10L). Nanoliter quantities of either an 8-point or 10-point, 3-fold serial dilution in DMSO was pre-dispensed into assay plates (Perkin Elmer, ProxiPlate-384 F Plus, #6008269) for a final test concentration range of either 25 μM to 11 nM or 25 μM to 1.3 nM, respectively. The final concentration of the enzyme (USP7, construct USP7 (208-1102) 6*His, Viva Biotech) in the assay was 62.5 pM. Final substrate (Ub-Rh110; Ubiquitin-Rhodamine 110, R&D Systems #U-555) concentration was 25 nM with [Ub-Rh110]<<Km. 5 μL of 2× enzyme was added to the assay plates (pre-stamped with compound) and preincubated with USP7 for 30 min. 5 μL of 2×Ub-Rh110 was then added to assay plates. Plates were incubated stacked for 20 min at room temperature before 5 μL of stop solution (final concentration of 10 mM citric acid in assay buffer (Sigma, #251275-500G)). Fluorescence was read on the Envision (Excitation at 485 nm and Emission at 535 nm; Perkin Elmer) or on the PheraSTAR (Excitation at 485 nm and Emission at 535 nm; BMG Labtech).
# Each assay was performed in a final volume of 20 μL in assay buffer containing 20 mM Tris-HCl (pH 8.0, (1M Tris-HCl, pH 8.0 solution; Corning 46-031-CM)), 2 mM CaCl2 (1M calcium chloride solution; Sigma #21114), 1 mM GSH (L-Glutathione reduced; Sigma #G4251), 0.01% Prionex (0.22 μM filtered, Sigma #G-0411), and 0.01% Triton X-100. Stock compound solutions were stored at −20° C. as 10 mM in DMSO. Up to 1 month prior to the assay, 2 mM test compounds were pre-dispensed into assay plates (Black, low volume; Corning #3820) and frozen at −20° C. Prestamped assay plates were allowed to warm to room temperature on the day of the assay. For the screen, 100 nL of 2 mM was pre-dispensed for a final screening concentration of 10 μM (DMSO(fc)=0.5%). For follow-up studies, 250 nL of an 8-point, 3-fold serial dilution in DMSO was pre-dispensed into assay plates for a final test concentration of 25 μM-11 nM (1.25c % DMSO final concentration). Unless otherwise indicated, all follow-up assays were run on triplecate plates. Enzyme (USP7, construct Met (208-1102)-TEV-6*His; Viva Q93009-1) concentration and incubation times were optimized for the maximal signal-to-background while maintaining initial velocity conditions at a fixed substrate concentration. The final concentration of the enzyme in the assay was either 75 pM or 250 pM. Final substrate (Ub-Rh110; Ubiquitin-Rhodamine 110, R&D Systems (biotechne)#U-555) concentration was 25 nM with [Ub-Rh110]<<Km. Compounds were either not preincubated or preincubated with USP7 between 30 to 120 min prior to the addition of 10 μL of 2×Ub-Rh110 to compound plates. Plates were incubated stacked for either 23 or 45 min at room temperature before fluorescence was read on the Envision (Excitation at 485 nm and Emission at 535 nm; Perkin Elmer) or on the PheraSTAR (Excitation at 485 nm and Emission at 535 nm; BMG Labtech).
# Data from USP7 Assays A and B were reported as percent inhibition (inh) compared with control wells based on the following equation: % inh=1−((FLU−AveLow)/(AveHigh−AveLow)) where FLU=measured Fluorescence, AveLow=average Fluorescence of no enzyme control (n=16), and AveHigh=average Fluorescence of DMSO control (n=16). IC50 values were determined by curve fitting of the standard 4 parameter logistic fitting algorithm included in the Activity Base software package: IDBS XE Designer Model205. Data was fitted using the Levenburg Marquardt algorithm.
# T1 sequence (Q93009 208-1102): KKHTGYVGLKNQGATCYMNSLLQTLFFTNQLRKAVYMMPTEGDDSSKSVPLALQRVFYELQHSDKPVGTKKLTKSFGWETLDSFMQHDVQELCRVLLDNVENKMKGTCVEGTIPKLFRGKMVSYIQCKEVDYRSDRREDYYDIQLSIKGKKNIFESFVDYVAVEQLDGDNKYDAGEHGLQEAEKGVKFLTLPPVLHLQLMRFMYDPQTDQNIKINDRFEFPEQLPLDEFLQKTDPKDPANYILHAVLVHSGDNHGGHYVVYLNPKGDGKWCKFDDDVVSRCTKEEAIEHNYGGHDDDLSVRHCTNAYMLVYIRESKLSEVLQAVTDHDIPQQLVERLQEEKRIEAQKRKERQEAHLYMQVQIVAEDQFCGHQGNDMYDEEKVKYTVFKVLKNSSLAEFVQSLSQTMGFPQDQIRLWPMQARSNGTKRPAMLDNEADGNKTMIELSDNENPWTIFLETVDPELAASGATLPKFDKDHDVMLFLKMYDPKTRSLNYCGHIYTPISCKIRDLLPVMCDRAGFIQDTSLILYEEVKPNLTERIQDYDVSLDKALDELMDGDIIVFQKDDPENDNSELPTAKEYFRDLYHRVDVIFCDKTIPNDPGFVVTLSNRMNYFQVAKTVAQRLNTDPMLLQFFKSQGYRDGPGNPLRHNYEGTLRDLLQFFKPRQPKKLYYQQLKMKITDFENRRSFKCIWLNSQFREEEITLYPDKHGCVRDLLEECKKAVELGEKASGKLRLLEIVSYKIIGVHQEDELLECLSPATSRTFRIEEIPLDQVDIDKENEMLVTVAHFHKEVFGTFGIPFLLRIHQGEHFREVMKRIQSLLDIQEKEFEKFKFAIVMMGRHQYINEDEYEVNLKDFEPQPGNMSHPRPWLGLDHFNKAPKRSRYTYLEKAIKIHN
row,Compound,pIC50
1,"CN1CCN(c2ccc(C(=O)N3CCC(O)(Cn4cnc5c(-c6ccc(F)cc6)nsc5c4=O)CC3)nc2)CC1 [Compound I-10, 3-(4-fluorophenyl)-6-({4-hydroxy-1-[5-(4-methylpiperazin-1-yl)pyridine-2-carbonyl]piperidin-4-yl}methyl)-6H,7H-[1,2]thiazolo[4,5-d]pyrimidin-7-one]",< 5.00
2,"O=C(c1ccc(F)cc1)N1CCC(O)(Cn2cnc3c(-c4ccccc4)nsc3c2=O)CC1 [Compound I-1, 6-{[1-(4-fluorobenzoyl)-4-hydroxypiperidin-4-yl]methyl}-3-phenyl-6H,7H-[1,2]thiazolo[4,5-d]pyrimidin-7-one]",< 5.00
3,"COc1ccc(C(=O)N2CCC(O)(Cn3cnc4c(-c5ccccc5)nsc4c3=O)CC2)cc1 [Compound I-8, 6-{[4-hydroxy-1-(4-methoxybenzoyl)piperidin-4-yl]methyl}-3-phenyl-6H,7H-[1,2]thiazolo[4,5-d]pyrimidin-7-one]",5.00 to 6.00
4,"O=C(c1ccccc1)N1CCC(O)(Cn2cnc3c(-c4ccccc4)n[nH]c3c2=O)CC1 [Compound I-29, 6-[(1-benzoyl-4-hydroxypiperidin-4-yl)methyl]-3-phenyl-1H,6H,7H-pyrazolo[4,3-d]pyrimidin-7-one]",6.00 to 6.30
5,"COc1ccc(C(=O)N2CCC(O)(Cn3cnc4c(-c5ccc(F)cc5)n[nH]c4c3=O)CC2)cc1 [Compound I-20, 3-(4-fluorophenyl)-6-{[4-hydroxy-1-(4-methoxybenzoyl)piperidin-4-yl]methyl}-1H, 6H,7H-pyrazolo[4,3-d]pyrimidin-7-one]",5.00 to 6.00
6,"COc1ccc(C(=O)N2CCC(O)(Cn3cnc4c(-c5ccc(F)cc5)nsc4c3=O)CC2)cc1 [Compound I-3, 3-(4-fluorophenyl)-6-{[4-hydroxy-1-(4-methoxybenzoyl)piperidin-4-yl]methyl}-6H,7H-[1,2]thiazolo[4,5-d]pyrimidin-7-one]",5.00 to 6.00
7,"C[C@H](CC(=O)N1CCC(O)(Cn2cnc3cc[nH]c3c2=O)CC1)c1ccccc1 [Compound I-28, 3-({4-hydroxy-1-[(3R)-3-phenylbutanoyl]piperidin-4-yl}methyl)-3H,4H,5H-pyrrolo[3,2-d]pyrimidin-4-one]",> 6.30
8,"C[C@@H](CC(=O)N1CCC(O)(Cn2cnc3c(-c4ccccc4)nsc3c2=O)CC1)n1cccn1 [Compound I-15, 6-({4-hydroxy-1-[(3 S)-3-(1H-pyrazol-1-yl)butanoyl]piperidin-4-yl}methyl)-3-phenyl-6H,7H-[1,2]thiazolo[4,5-d]pyrimidin-7-one]",5.00 to 6.00
9,"O=C(c1ccc(F)cc1)N1CCC(O)(Cn2cnc3c(-c4ccc(F)cc4)nsc3c2=O)CC1 [Compound I-30, 6-{[1-(4-fluorobenzoyl)-4-hydroxypiperidin-4-yl]methyl}-3-(4-fluorophenyl)-6H,7H-[1,2]thiazolo[4,5-d]pyrimidin-7-one]",< 5.00
10,"CC(CC(=O)N1CCC(O)(Cn2cnc3c(-c4ccccc4)nsc3c2=O)CC1)c1ccccc1 (stereo not shown) [Compound I-11, 6-{[4-hydroxy-1-(3-phenylbutanoyl)piperidin-4-yl]methyl}-3-phenyl-6H,7H-[1,2]thiazolo[4,5-d]pyrimidin-7-one]",6.00 to 6.30
11,"COc1ccc(C(=O)N2CCC(O)(Cn3cnc4c(-c5ccc(CO)cc5)nsc4c3=O)CC2)cc1 [Compound I-24, 6-{[4-hydroxy-1-(4-methoxybenzoyl)piperidin-4-yl]methyl}-3-[4-(hydroxymethyl)phenyl]-6H,7H-[1,2]thiazolo[4,5-d]pyrimidin-7-one]",5.00 to 6.00
12,"O=C1NCCN1CCOc1cccc(-c2nsc3c(=O)n(CC4(O)CCN(C(=O)C5CC5)CC4)cnc23)c1 [Compound I-27, 1-[2-(3-{6-[(1-cyclopropanecarbonyl-4-hydroxypiperidin-4-yl)methyl]-7-oxo-6H,7H-[1,2]thiazolo[4,5-d]pyrimidin-3-yl}phenoxy)ethyl]imidazolidin-2-one]",5.00 to 6.00
13,"O=C(CCC(F)(F)F)N1CCC(O)(Cn2cnc3c(-c4ccc(F)cc4)nsc3c2=O)CC1 [Compound I-25, 3-(4-fluorophenyl)-6-{[4-hydroxy-1-(4,4,4-trifluorobutanoyl)piperidin-4-yl]methyl}-6H,7H-[1,2]thiazolo[4,5-d]pyrimidin-7-one]",< 5.00
14,"C[C@H](CC(=O)N1CCC(O)(Cn2cnc3c(-c4ccccc4)nsc3c2=O)CC1)c1ccccc1 [Compound I-13, 6-({4-hydroxy-1-[(3R)-3-phenylbutanoyl]piperidin-4-yl}methyl)-3-phenyl-6H,7H-[1,2]thiazolo[4,5-d]pyrimidin-7-one]",5.00 to 6.00
15,"C[C@@H](CC(=O)N1CCC(O)(Cn2cnc3c(-c4ccccc4)nsc3c2=O)CC1)c1ccccc1 [Compound I-12, 6-({4-hydroxy-1-[(3 S)-3-phenylbutanoyl]piperidin-4-yl}methyl)-3-phenyl-6H,7H-[1,2]thiazolo[4,5-d]pyrimidin-7-one]",> 6.30
16,"CN(C)C(=O)N1CCC(O)(Cn2cnc3c(-c4ccc(F)c(N5CCNCC5)c4)nsc3c2=O)CC1 [Compound I-22, 4-({3-[4-fluoro-3-(piperazin-1-yl)phenyl]-7-oxo-6H,7H-[1,2]thiazolo[4,5-d]pyrimidin-6-yl}methyl)-4-hydroxy-N,N-dimethylpiperidine-1-carboxamide]",5.00 to 6.00
17,"3-(4-fluoro-3-methoxyphenyl)-6-{[1-(4-fluorobenzoyl)-4-hydroxypiperidin-4-yl]methyl}-6H,7H-[1,2]thiazolo[4,5-d]pyrimidin-7-one [Compound I-9]",< 5.00
18,"COc1ccc(C(=O)N2CCC(O)(Cn3cnc4c(-c5ccc(OC)cc5)nsc4c3=O)CC2)cc1 [Compound I-31, 6-{[4-hydroxy-1-(4-methoxybenzoyl)piperidin-4-yl]methyl}-3-(4-methoxyphenyl)-6H,7H-[1,2]thiazolo[4,5-d]pyrimidin-7-one]",5.00 to 6.00
19,"C[C@H](CC(=O)N1CCC(O)(Cn2cnc3c(-c4ccccc4)nsc3c2=O)CC1)n1cccn1 [Compound I-16, 6-({4-hydroxy-1-[(3R)-3-(1H-pyrazol-1-yl)butanoyl]piperidin-4-yl}methyl)-3-phenyl-6H,7H-[1,2]thiazolo[4,5-d]pyrimidin-7-one]",5.00 to 6.00
20,"O=C(CC(c1ccccc1)C(F)F)N1CCC(O)(Cn2cnc3c(-c4ccccc4)nsc3c2=O)CC1 (stereo not shown) [Compound I-17, 6-{[1-(4,4-difluoro-3-phenylbutanoyl)-4-hydroxypiperidin-4-yl]methyl}-3-phenyl-6H,7H-[1,2]thiazolo[4,5-d]pyrimidin-7-one]",5.00 to 6.00
21,"O=C(c1ccc(F)cc1)N1CCC(O)(Cn2cnc3c(-c4ccc(CO)cc4)nsc3c2=O)CC1 [Compound I-23, 6-{[1-(4-fluorobenzoyl)-4-hydroxypiperidin-4-yl]methyl}-3-[4-(hydroxymethyl)phenyl]-6H,7H-[1,2]thiazolo[4,5-d]pyrimidin-7-one]",5.00 to 6.00
22,"O=C(c1ccc(F)cc1)N1CCC(O)(Cn2cnc3c(-c4cccc(CO)c4)nsc3c2=O)CC1 [Compound I-4, 6-{[1-(4-fluorobenzoyl)-4-hydroxypiperidin-4-yl]methyl}-3-[3-(hydroxymethyl)phenyl]-6H,7H-[1,2]thiazolo[4,5-d]pyrimidin-7-one]",5.00 to 6.00
